Literature values in patent US20230074252A1, “DOSAGES AND METHODS FOR TREATING PULMONARY ARTERIAL HYPERTENSION WITH RODATRISTAT” (Altavant Sciences GmbH, priority 2020, published 2023).

Key:
[1] = cited from earlier work; for Change in exposure on coadministration with clopidogrel: selexipag + clopidogrel (moderate inhibitor); for Increase in exposure (AUC) on coadministration with gemfibrozil: selexipag + gemfibrozil (strong CYP2C8 inhibitor); for Increase in exposure on coadministration with ritonavir: selexipag + ritonavir
prostacyclin receptor = prostacyclin receptor (Homo sapiens, UniProt P43119); settings: cited from earlier work
CYP2C8 = molecular target: T1, CYP2C8 (Homo sapiens, UniProt P10632); settings: literature; cited from earlier work
T1 sequence (P10632 1-490): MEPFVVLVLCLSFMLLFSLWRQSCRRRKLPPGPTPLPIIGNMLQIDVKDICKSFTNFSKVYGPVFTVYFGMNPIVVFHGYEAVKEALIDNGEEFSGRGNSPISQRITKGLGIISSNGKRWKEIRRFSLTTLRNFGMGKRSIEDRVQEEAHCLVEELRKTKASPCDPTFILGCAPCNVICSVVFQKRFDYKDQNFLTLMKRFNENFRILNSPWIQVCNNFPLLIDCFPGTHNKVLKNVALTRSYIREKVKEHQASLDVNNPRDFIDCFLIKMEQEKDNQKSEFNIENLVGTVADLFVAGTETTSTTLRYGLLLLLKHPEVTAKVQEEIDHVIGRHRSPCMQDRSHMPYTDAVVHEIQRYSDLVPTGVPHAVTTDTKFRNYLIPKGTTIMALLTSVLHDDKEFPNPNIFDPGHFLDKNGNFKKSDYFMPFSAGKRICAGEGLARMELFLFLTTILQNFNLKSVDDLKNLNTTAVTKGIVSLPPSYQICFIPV

[2] = oral; cited from earlier work
[3] = human, in vivo; cited from earlier work

Chain of prostacyclin receptor (P43119 whole entry, species assumed): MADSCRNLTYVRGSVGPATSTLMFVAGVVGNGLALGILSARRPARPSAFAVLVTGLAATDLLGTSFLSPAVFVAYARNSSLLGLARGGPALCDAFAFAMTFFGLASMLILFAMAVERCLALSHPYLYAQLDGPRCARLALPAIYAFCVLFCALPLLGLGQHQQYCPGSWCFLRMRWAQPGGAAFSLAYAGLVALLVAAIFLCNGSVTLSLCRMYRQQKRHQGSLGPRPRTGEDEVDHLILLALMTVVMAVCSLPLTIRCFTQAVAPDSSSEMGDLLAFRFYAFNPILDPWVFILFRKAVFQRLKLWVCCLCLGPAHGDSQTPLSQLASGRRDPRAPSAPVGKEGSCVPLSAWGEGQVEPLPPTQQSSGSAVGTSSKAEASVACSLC

Structure (SMILES)	Change in exposure on coadministration with clopidogrel [1]	Increase in exposure (AUC) on coadministration with gemfibrozil [1]	Increase in exposure on coadministration with ritonavir [1]	further results
CC(C)N(CCCCOCC(=O)O)c1cnc(-c2ccccc2)c(-c2ccccc2)n1 [ACT-333679]	2.7 fold	11 fold	< 2 fold	Potency relative to selexipag (prostacyclin receptor): approximately 37 fold
O=C1Nc2ccc(Cl)cc2[C@@](C#CC2CC2)(C(F)(F)F)O1 [efavirenz]				IC50 (CYP2C8): 4.8 µM
CC(C)N(CCCCOCC(=O)NS(C)(=O)=O)c1cnc(-c2ccccc2)c(-c2ccccc2)n1 [selexipag]	did not impact	2 fold	~2 fold	
CCCCC[C@H](O)CC[C@@H]1[C@H]2Cc3cccc(OCC(=O)O)c3C[C@H]2C[C@H]1O.[Na+] [treprostinil, (1R,2R,3aS,9aS)-[[2,3,3a,4,9,9a-Hexahydro-2-hydroxy-1-[(3S)-3-hydroxyoctyl]-1Hbenz[f]inden-5-yl]oxy]acetic acid monosodium salt]				Bioavailability [2]: ~17%; Increase in AUC on coadministration with gemfibrozil [3]: ~2 fold; Increase in Cmax on coadministration with gemfibrozil [3]: ~2 fold
